Measured values from US8278452B2, “Heterocyclic compounds and compositions as c-kit and PDGFR kinase inhibitors” (IRM LLC, priority 2008, dated 2012).
pIC50: −log10 of the molar value.

What follows are compounds tested on Mo7e cells which endogenously express c-kit (assay: Mo7e assay: inhibition of SCF dependent proliferation (MTT)). Settings: Table 1; SCF stimulated Mo7e cells, 48 hours, MTT.
Assay type: cell-based
Procedure, shortened: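 Mo7e cells stimulated with human recombinant SCF and exposed to two-fold serial compound dilutions from a top concentration of 10 μM. After 48 h at 37 °C, viability measured by MTT colorimetric assay; IC50 derived.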

`Cc1cc2c(cn1)cc(-c1cc(Nc3noc([C@@]4(C)CCCO4)n3)ccc1C)c(=O)n2C` [Compound A97, 1,7-dimethyl-3-[2-methyl-5-({5-[(2R)-2-methyloxolan-2-yl]-1,2,4-oxadiazol-3-yl}amino)phenyl]-1,2-dihydro-1,6-naphthyridin-2-one] and `Cc1cc2c(cn1)cc(-c1cc(Nc3noc([C@H]4C[C@@](C)(O)C4)n3)ccc1C)c(=O)n2C` [Compound A101, 3-(5-{[5-(3-hydroxy-3-methylcyclobutyl)-1,2,4-oxadiazol-3-yl]amino}-2-methylphenyl)-1,7-dimethyl-1,2-dihydro-1,6-naphthyridin-2-one] are within 0.2 log units of each other in pIC50: 6.80 for the first, 6.69 for the second.

Going from `Cc1cc2c(cn1)cc(-c1cc(Nc3noc(C4Cc5ccccc5O4)n3)ccc1C)c(=O)n2C` (stereo not drawn) [Compound A98, 3-(5-{[5-(2,3-dihydro-1-benzofuran-2-yl)-1,2,4-oxadiazol-3-yl]amino}-2-methylphenyl)-1,7-dimethyl-1,2-dihydro-1,6-naphthyridin-2-one] to `Cc1cc2c(cn1)cc(-c1cc(Nc3noc([C@H]4CCCCO4)n3)ccc1C)c(=O)n2C` [Compound A99, 1,7-dimethyl-3-[2-methyl-5-({5-[(2R)-oxan-2-yl]-1,2,4-oxadiazol-3-yl}amino)phenyl]-1,2-dihydro-1,6-naphthyridin-2-one], the pIC50 rises from 6.41 to 7.00 (0.59 log units).

Compared with `Cc1cc2c(cn1)cc(-c1cc(Nc3noc([C@@H]4CCCCO4)n3)ccc1C)c(=O)n2C` [Compound A100, 1,7-dimethyl-3-[2-methyl-5-({5-[(2S)-oxan-2-yl]-1,2,4-oxadiazol-3-yl}amino)phenyl]-1,2-dihydro-1,6-naphthyridin-2-one], `Cc1cc2c(cn1)cc(-c1cc(Nc3nnc(C4CCCC4)[nH]3)ccc1C)c(=O)n2C` [Compound C1, 3-(5-(5-cyclopentyl-4H-1,2,4-triazol-3-ylamino)-2-methylphenyl)-1,7-dimethyl-1,6-naphthyridin-2(1H)-one] is 0.23 log units lower in pIC50: 7.15 for the first, 6.92 for the second. The first is the more potent here.

`Cc1ccc(-c2nc(Nc3ccc(C)c(-c4cc5cnc(C)cc5n(C)c4=O)c3)no2)nc1` [Compound A102, 1,7-dimethyl-3-(2-methyl-5-{[5-(5-methylpyridin-2-yl)-1,2,4-oxadiazol-3-yl]amino}phenyl)-1,2-dihydro-1,6-naphthyridin-2-one] and `COc1ccc(-c2nc(Nc3ccc(C)c(-c4cc5cnc(C)cc5n(C)c4=O)c3)no2)nc1` [Compound A103, 3-(5-{[5-(5-methoxypyridin-2-yl)-1,2,4-oxadiazol-3-yl]amino}-2-methylphenyl)-1,7-dimethyl-1,2-dihydro-1,6-naphthyridin-2-one] are within 0.2 log units of each other in pIC50: 6.95 for the first, 7.09 for the second.

Compared with `CCc1cc2c(cn1)cc(-c1cc(Nc3noc(C(C)C)n3)ccc1C)c(=O)n2C` [Compound A104, 7-ethyl-3-(5-(5-isopropyl-1,2,4-oxadiazol-3-ylamino)-2-methylphenyl)-1-methyl-1,6-naphthyridin-2(1H)-one], `CCc1cc2c(cn1)cc(-c1cc(Nc3noc(-c4ccccn4)n3)ccc1C)c(=O)n2C` [Compound A105, 7-ethyl-1-methyl-3-(2-methyl-5-(5-(pyridin-2-yl)-1,2,4-oxadiazol-3-ylamino)phenyl)-1,6-naphthyridin-2(1H)-one] is 0.51 log units lower in pIC50: 7.06 for the first, 6.55 for the second. The first is the more potent here.

`COc1ccc(-c2nnc(Nc3ccc(C)c(-c4cc5cnc(C)cc5n(C)c4=O)c3)o2)cc1` [Compound B2, 3-(5-{[5-(4-methoxyphenyl)-1,3,4-oxadiazol-2-yl]amino}-2-methylphenyl)-1,7-dimethyl-1,2-dihydro-1,6-naphthyridin-2-one] and `Cc1cc2c(cn1)cc(-c1cc(Nc3nnc(-c4ccc(Cl)cc4)o3)ccc1C)c(=O)n2C` [Compound B3, 3-(5-{[5-(4-chlorophenyl)-1,3,4-oxadiazol-2-yl]amino}-2-methylphenyl)-1,7-dimethyl-1,2-dihydro-1,6-naphthyridin-2-one] are within 0.2 log units of each other in pIC50: 7.07 for the first, 7.06 for the second.

`Cc1cc2c(cn1)cc(-c1cc(Nc3nnc(-c4ccccc4)o3)ccc1C)c(=O)n2C` [Compound B4, 1,7-dimethyl-3-(2-methyl-5-(5-phenyl-1,3,4-oxadiazol-2-ylamino)phenyl)-1,6-naphthyridin-2(1H)-one] and `Cc1cc2c(cn1)cc(-c1cc(Nc3nnc(-c4ccc(F)cc4)o3)ccc1C)c(=O)n2C` [Compound B6, 3-(5-{[5-(4-fluorophenyl)-1,3,4-oxadiazol-2-yl]amino}-2-methylphenyl)-1,7-dimethyl-1,2-dihydro-1,6-naphthyridin-2-one] are within 0.2 log units of each other in pIC50: 6.98 for the first, 6.92 for the second.

`Cc1cc2c(cn1)cc(-c1cc(Nc3nnc(CC(C)C)o3)ccc1C)c(=O)n2C` [Compound B5, 3-(5-(5-isobutyl-1,3,4-oxadiazol-2-ylamino)-2-methylphenyl)-1,7-dimethyl-1,6-naphthyridin-2(1H)-one] and `Cc1cc2c(cn1)cc(-c1cc(Nc3nnc(C(C)C)o3)ccc1C)c(=O)n2C` [Compound B7, 1,7-dimethyl-3-(2-methyl-5-{[5-(propan-2-yl)-1,3,4-oxadiazol-2-yl]amino}phenyl)-1,2-dihydro-1,6-naphthyridin-2-one] are within 0.2 log units of each other in pIC50: 6.97 for the first, 6.79 for the second.

Going from `Cc1cc2c(cn1)cc(-c1cc(Nc3nnc(C(C)(C)C)o3)ccc1C)c(=O)n2C` [Compound B8, 3-{5-[(5-tert-butyl-1,3,4-oxadiazol-2-yl)amino]-2-methylphenyl}-1,7-dimethyl-1,2-dihydro-1,6-naphthyridin-2-one] to `Cc1cc2c(cn1)cc(-c1cc(Nc3nnc(C4CC4)o3)ccc1C)c(=O)n2C` [Compound B9, 3-{5-[(5-cyclopropyl-1,3,4-oxadiazol-2-yl)amino]-2-methylphenyl}-1,7-dimethyl-1,2-dihydro-1,6-naphthyridin-2-one], the pIC50 falls from 6.68 to 6.48 (0.20 log units).

`Cc1cc2c(cn1)cc(-c1cc(Nc3nnc(C4CCCCC4)o3)ccc1C)c(=O)n2C` [Compound B10, 3-{5-[(5-cyclohexyl-1,3,4-oxadiazol-2-yl)amino]-2-methylphenyl}-1,7-dimethyl-1,2-dihydro-1,6-naphthyridin-2-one] and `Cc1cc2c(cn1)cc(-c1cc(Nc3nnc(C4CCCCC4)[nH]3)ccc1C)c(=O)n2C` [Compound C3, 3-{5-[(5-cyclohexyl-4H-1,2,4-triazol-3-yl)amino]-2-methylphenyl}-1,7-dimethyl-1,2-dihydro-1,6-naphthyridin-2-one] are within 0.2 log units of each other in pIC50: 6.42 for the first, 6.55 for the second.

`Cc1cc2c(cn1)cc(-c1cc(Nc3nnc(-c4ccc(Cl)cc4)[nH]3)ccc1C)c(=O)n2C` [Compound C2, 3-(5-{[5-(4-chlorophenyl)-4H-1,2,4-triazol-3-yl]amino}-2-methylphenyl)-1,7-dimethyl-1,2-dihydro-1,6-naphthyridin-2-one] and `Cc1ccc(-c2nnc(Nc3ccc(C)c(-c4cc5cnc(C)cc5n(C)c4=O)c3)[nH]2)cc1` [Compound C4, 1,7-dimethyl-3-(2-methyl-5-{[5-(4-methylphenyl)-4H-1,2,4-triazol-3-yl]amino}phenyl)-1,2-dihydro-1,6-naphthyridin-2-one] are within 0.2 log units of each other in pIC50: 6.59 for the first, 6.54 for the second.

`Cc1cc2c(cn1)cc(-c1cc(Nc3nnc(CC(C)(C)C)[nH]3)ccc1C)c(=O)n2C` [Compound C5, 3-(5-{[5-(2,2-dimethylpropyl)-4H-1,2,4-triazol-3-yl]amino}-2-methylphenyl)-1,7-dimethyl-1,2-dihydro-1,6-naphthyridin-2-one] and `Cc1cc2c(cn1)cc(-c1cc(Nc3nnc(-c4cccc(Cl)c4)[nH]3)ccc1C)c(=O)n2C` [Compound C7, 3-(5-{[5-(3-chlorophenyl)-4H-1,2,4-triazol-3-yl]amino}-2-methylphenyl)-1,7-dimethyl-1,2-dihydro-1,6-naphthyridin-2-one] are within 0.2 log units of each other in pIC50: 6.49 for the first, 6.42 for the second.
